This is an account of results in US10316038B2, “Pyrrolopyrimidine ITK inhibitors for treating inflammation and cancer” (ACLARIS THERAPEUTICS, INC., priority 2017, dated 2019).

The IC50 is the midpoint of a concentration-inhibition curve.

Assay [1] deals with ITK phosphorylation of its substrate, PLCγ1, at Y783. The experiment in a line: ITK target modulation assay (phospho-Y783 PLCγ1 immunoblot in Jurkat T cells). The note with it: Homo sapiens, Jurkat, 2 h, 2 hours compound, CD3/CD28 Dynabeads stimulation 100 sec, anti-phospho-Y783 PLCγ1 immunoblot, read-out: PLC-γ Inhibition IC50. It counts as cell-based. On the procedure: Target modulation was based upon the ability of a compound to inhibit ITK phosphorylation of its substrate, PLCγ1, at […]. Human Jurkat T cells were placed in snap-cap polypropylene tubes at 4 million per tube in 800 μL medium (RPMI1640 with 10% heat inactivated serum and […] 2-mercaptoethanol and supplemented with glutamine/penicillin/streptomycin). Compounds were added as 100 μL of 10× working stock solutions in medium with 1% DMSO (or medium with 1% DMSO for controls) and placed in a 37° C. incubator for 2 hours. Stimulation was carried out using CD3/CD28 Dynabeads to activate the T cell receptor and mimic antigen presenting cells. Beads were added for 100 sec at a ratio of 1 bead per cell, in 100 μL medium (or medium alone for unstimulated control). Starting at 70 sec, cells and beads were pelleted in a microfuge for 15 sec, the supernatant aspirated, and 50 μL lysis buffer was added per tube and mixed with the pellet at the 100 sec time point. Tubes were placed on a rotator for 30 min at 4° C., and cell debris was pelleted in a microfuge. Supernatant was mixed 1:1 with 2× Sample Buffer and subjected to SDS-polyacrylamide gel electrophoresis. After transfer to nitrocellulose, immunoblotting was done with anti-phospho-[…] PLCγ1 antibody. Immunoblots were visualized with ECL using horseradish peroxidase conjugated secondary antibody.
(A western blot detects proteins with antibodies after separation by electrophoresis.)

Another assay addresses T1, ITK (Homo sapiens, UniProt Q08881).
T1 sequence (Q08881 1-620): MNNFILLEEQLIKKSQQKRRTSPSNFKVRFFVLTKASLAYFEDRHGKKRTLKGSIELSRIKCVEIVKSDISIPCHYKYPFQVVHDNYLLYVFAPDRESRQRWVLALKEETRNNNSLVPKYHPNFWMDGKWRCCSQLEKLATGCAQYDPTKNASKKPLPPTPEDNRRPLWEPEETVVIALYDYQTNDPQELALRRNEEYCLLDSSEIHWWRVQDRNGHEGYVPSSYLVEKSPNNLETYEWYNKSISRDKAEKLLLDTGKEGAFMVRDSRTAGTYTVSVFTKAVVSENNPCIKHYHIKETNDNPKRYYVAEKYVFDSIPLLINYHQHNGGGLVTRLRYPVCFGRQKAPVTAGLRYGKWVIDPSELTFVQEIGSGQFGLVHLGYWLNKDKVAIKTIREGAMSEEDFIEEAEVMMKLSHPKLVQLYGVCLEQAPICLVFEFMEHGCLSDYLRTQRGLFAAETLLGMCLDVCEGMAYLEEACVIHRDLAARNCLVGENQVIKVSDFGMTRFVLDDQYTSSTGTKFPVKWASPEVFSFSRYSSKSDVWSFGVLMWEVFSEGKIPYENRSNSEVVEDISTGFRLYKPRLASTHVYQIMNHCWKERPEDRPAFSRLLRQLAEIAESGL
The experiment in a line: ITK inhibitor binding potency (LanthaScreen competitive binding assay). The note with it: TR-FRET competitive binding, 10 nM ITK, 50 nM kinase tracer-236; pre-incubation condition not given; read-out: ITK Inhibition IC50. From the text:
The ability of candidate compounds to interact with ITK is quantitated by a competitive binding assay using the LanthaScreen technology developed by Life Technologies. This assay is based on the binding of a proprietary, Alexa Fluor™ 647-labeled, ATP-competitive kinase inhibitor (kinase tracer-236) to the ITK expression construct in the presence of a Europium-conjugated antibody, resulting in a FRET (fluorescence resonance energy transfer) signal. Displacement of the kinase tracer by compound results in a lower emission ratio upon excitation of the Europium chelate. Candidate compounds are designed as potential irreversible inhibitors of ITK, capable of ligating to an active site cysteine residue resulting in time dependent covalent binding. The time dependent nature of irreversible inhibition is investigated by performing the binding assay with and without a pre-incubation of compound and ITK. […] The inhibitory potency of candidate compounds is measured in 20 mM HEPES pH 7.5, 10 mM MgCl2, 0.01% BSA, 0.0005% Tween-20, and 2% DMSO in the presence of 10 nM ITK, 2 nM Eu-anti-GST antibody, and 50 nM kinase tracer-236 using a 384-well plate format. Background signal is defined in the absence of ITK and uninhibited signal is defined in the presence of vehicle (2% DMSO) alone. Compounds were evaluated in an 11 point dose-response ranging from 20 uM to 0.34 nM. The binding assays are performed under two preincubation conditions to evaluate time dependence of inhibition. For the pre-incubation assay, ITK and Eu-anti-GST antibody are pre-incubated with compound or vehicle for two hours prior to the addition of kinase tracer. The non-preincubated assay is run under conditions where ITK and Eu-anti-GST antibody are added to a mixture of compound and kinase tracer. IC50 values of compounds are determined using a 4 parameter logistical fit of emission ratio as a function of the concentration of compound.

Consider `C=CC(=O)Nc1cccc(-c2cnc3[nH]cc(-c4cncc(C(N)=O)c4)c3c2)c1` [Example 9, 5-(5-(3-acryl-amidophenyl)-1H-pyrrolo[2,3-b]-pyridin-3-yl)-nicotinamide], for which the IC50 was greater than 5000 nM in assay [1] and no more than 100 nM on ITK.

For `CN(C)C/C=C/C(=O)Nc1cncc(-c2cnc3[nH]cc(-c4ccnc(F)c4)c3c2)c1` [Example 45, (E)-4-(dimethyl-amino)-N-(5-(3-(2-fluoropyridin-4-yl)-1H-pyrrolo-[2,3-b]pyridin-5-yl)pyridin-3-yl)-but-2-enamide], the results for the IC50 (in assay [1]; on ITK) were no more than 1000 nM and no more than 100 nM, respectively. The corresponding values for `C=CC(=O)Nc1cncc(-c2cnc3[nH]cc(-c4ccnc(OC)c4)c3c2)c1` [Example 17, N-(5-(3-(2-methoxypyridin-4-yl)-1H-pyrrolo-[2,3-b]pyridin-5-yl)pyridin-3-yl)-acrylamide] are no more than 1000 nM and no more than 100 nM.

For the compound `CN(C)C/C=C/C(=O)Nc1cncc(-c2cnc3[nH]cc(-c4ccnc(C#N)c4)c3c2)c1` [Example 4, (E)-N-(5-(3-(2-Cyanopyridin-4-yl)-1H-pyrrolo[2,3-b]pyridin-5-yl)pyridin-3-yl)-4-(dimethylamino)but-2-enamide], the concentration for half-maximal inhibition (IC50) in assay [1] is no more than 1000 nM; on ITK it was no more than 100 nM.

As to `C=CC(=O)Nc1cc(-c2cnc3[nH]cc(-c4ccnc(C#N)c4)c3c2)cc(-c2cnn(C)c2)c1` [Example 21, N-(3-(3-(2-cyano-pyridin-4-yl)-1H-pyrrolo[2,3-b]pyridin-5-yl)-5-(1-methyl-1H-pyrazol-4-yl)-phenyl)acrylamide], the IC50 was no more than 1000 nM in assay [1] and no more than 100 nM at ITK. For the compound `C=CC(=O)N(C)c1cccc(-c2cnc3[nH]cc(-c4ccnc(OC)c4)c3c2)c1` [Example 2, N-(3-(3-(2-Methoxypyridin-4-yl)-1H-pyrrolo[2,3-b]pyridin-5-yl)phenyl)-N-methylacrylamide], the figures for the IC50 (in assay [1]; at ITK) were 1000 to 5000 nM and no more than 100 nM, respectively.

With `COc1cc(NC(=O)/C=C/CN(C)C)cc(-c2cnc3[nH]cc(-c4ccnc(C)c4)c3c2)c1` [Example 37], the IC50 was no more than 1000 nM in assay [1] and no more than 100 nM at ITK. The corresponding values for `C=CC(=O)Nc1cc(OC)cc(-c2cnc3[nH]cc(-c4cccc(C#N)c4)c3c2)c1` [Example 16, N-(3-(3-(3-cyano-phenyl)-1H-pyrrolo[2,3-b]-pyridin-5-yl)-5-methoxyphenyl)-acrylamide] are no more than 1000 nM and no more than 100 nM. The like results for `CN(C)C/C=C/C(=O)Nc1cccc(-c2cnc3[nH]cc(-c4cncc(C(N)=O)c4)c3c2)c1` [Example 10, (E)-5-(5-(3-(4-(dimethylamino)-but-2-enamido)-phenyl)-1H-pyrrolo[2,3-b]-pyridin-3-yl)-nicotinamide] were, in that order, greater than 5000 nM and no more than 100 nM. The like results for `CN(C)C/C=C/C(=O)Nc1cc(-c2cnc3[nH]cc(-c4ccnc(F)c4)c3c2)cc(C(F)(F)F)c1` [Example 32, (E)-4-(dimethyl-amino)-N-(3-(3-(2-fluoropyridin-4-yl)-1H-pyrrolo-[2,3-b]pyridin-5-yl)-5-(trifluoro-methyl)phenyl)-but-2-enamide] were, in that order, no more than 1000 nM and no more than 100 nM. `COc1cc(NC(=O)/C=C/CN(C)C)cc(-c2cnc3[nH]cc(-c4cccc(C#N)c4)c3c2)c1` [Example 19, (E)-N-(3-(3-(3-cyanophenyl)-1H-pyrrolo[2,3-b]-pyridin-5-yl)-5-methoxyphenyl)-4-(dimethyl-amino)but-2-enamide]: the IC50 in assay [1] is no more than 1000 nM; at ITK it was no more than 100 nM.

In the case of `C=CC(=O)Nc1cc(OC)cc(-c2cnc3[nH]cc(-c4ccnc(F)c4)c3c2)c1` [Example 29, N-(3-(3-(2-fluoro-pyridin-4-yl)-1H-pyrrolo[2,3-b]-pyridin-5-yl)-5-methoxyphenyl)-acrylamide], the values for the IC50 (in assay [1]; on ITK) were no more than 1000 nM and no more than 100 nM, respectively. The like results for `C=CC(=O)Nc1cc(-c2cnc3[nH]cc(-c4cncc(C#N)c4)c3c2)cc(C(F)(F)F)c1` [Example 12, N-(3-(3-(5-cyano-pyridin-3-yl)-1H-pyrrolo[2,3-b]-pyridin-5-yl)-5-(trifluoromethyl)-phenyl)acrylamide] were, in that order, no more than 1000 nM and no more than 100 nM. As for `COc1cc(-c2cnc3[nH]cc(-c4cccc(C#N)c4)c3c2)cc(N(C)C(=O)/C=C/CN(C)C)c1` [Example 64], the half-maximal inhibitory concentration (IC50) was no more than 1000 nM in assay [1] and no more than 100 nM on ITK. `C=CC(=O)Nc1cc(-c2cnc3[nH]cc(-c4ccnc(C)c4)c3c2)cc(C(F)(F)F)c1` [Example 23, N-(3-(3-(2-methyl-pyridin-4-yl)-1H-pyrrolo[2,3-b]-pyridin-5-yl)-5-(trifluoromethyl)-phenyl)acrylamide]: the IC50 in assay [1] was no more than 1000 nM; on ITK it was no more than 100 nM.

With `C=CC(=O)Nc1cc(-c2cnc3[nH]cc(-c4ccnc(C#N)c4)c3c2)cc(C(F)(F)F)c1` [Example 35, N-(3-(3-(2-cyano-pyridin-4-yl)-1H-pyrrolo[2,3-b]-pyridin-5-yl)-5-(trifluoromethyl)-phenyl)acrylamide], the values for the IC50 (in assay [1]; on ITK) were no more than 1000 nM and no more than 100 nM, respectively. The corresponding values for `C=CC(=O)Nc1cncc(-c2cnc3[nH]cc(-c4cccc(C(F)(F)F)c4)c3c2)c1` [Example 62, N-(5-(3-(3-(trifluoromethyl)-phenyl)-1H-pyrrolo[2,3-b]-pyridin-5-yl)-pyridin-3-yl)-acrylamide] are greater than 5000 nM and no more than 1000 nM. Consider `C=CC(=O)Nc1cncc(-c2cnc3[nH]cc(-c4ccnc(C#N)c4)c3c2)c1` [Example 34, N-(5-(3-(2-cyano-pyridin-4-yl)-1H-pyrrolo[2,3-b]-pyridin-5-yl)-pyridin-3-yl)-acrylamide], for which the 50% inhibitory concentration (IC50) was no more than 1000 nM in assay [1] and no more than 100 nM at ITK. On to `CN(C)C/C=C/C(=O)N(C)c1cncc(-c2cnc3[nH]cc(-c4ccnc(F)c4)c3c2)c1` [Example 74, (E)-4-(dimethyl-amino)-N-(5-(3-(2-fluoropyridin-4-yl)-1H-pyrrolo-[2,3-b]pyridin-5-yl)pyridin-3-yl)-N-methylbut-2-enamide], for which, in assay [1], the IC50 is no more than 1000 nM.

For the compound `Cc1cc(NC(=O)/C=C/CN(C)C)cc(-c2cnc3[nH]cc(-c4cccc(C#N)c4)c3c2)c1` [Example 76, (E)-N-(3-(3-(3-cyanophenyl)-1H-pyrrolo[2,3-b]-pyridin-5-yl)-5-methylphenyl)-4-(dimethyl-amino)but-2-enamide], the IC50 in assay [1] lay within 1000 to 5000 nM. Turning to `COc1cc(-c2c[nH]c3ncc(-c4cncc(N(C)C(=O)/C=C/CN(C)C)c4)cc23)ccn1` [Example 73, (E)-4-(dimethyl-amino)-N-(5-(3-(2-methoxypyridin-4-yl)-1H-pyrrolo-[2,3-b]pyridin-5-yl)pyridin-3-yl)-N-methylbut-2-enamide], in assay [1], the 50% inhibitory concentration (IC50) is no more than 1000 nM. Same read-out and setting: with `C=CC(=O)Nc1cc(C)cc(-c2cnc3[nH]cc(-c4cccc(C#N)c4)c3c2)c1` [Example 75, N-(3-(3-(3-cyano-phenyl)-1H-pyrrolo[2,3-b]-pyridin-5-yl)-5-methylphenyl)-acrylamide] the figure was 1000 to 5000 nM.
